Assay: xn = mol fraction of the nth substance listed
Conditions: 100 kPa, Liquid; for speed of sound: Frequency=5 MHz, Pulse-echo method; for mass density: Vibrating tube method

OCCCCCO [1,5-pentanediol] + O
Conditions	mass density [kg/m3]	speed of sound [m/s]
298.15 K, x1 = 0.005	996.7	–
298.15 K, x1 = 0.0101	996.7	–
298.15 K, x1 = 0.0196	997.13	–
298.15 K, x1 = 0.0251	997.61	–
298.15 K, x1 = 0.0304	998.17	–
298.15 K, x1 = 0.05	999.75	–
298.15 K, x1 = 0.0769	1001.11	–
298.15 K, x1 = 0.1002	1002.09	–
298.15 K, x1 = 0.1282	–	1678.7
298.15 K, x1 = 0.1298	–	1679.1
298.15 K, x1 = 0.1332	–	1680
298.15 K, x1 = 0.1353	–	1680.5
298.15 K, x1 = 0.1358	–	1680.6
298.15 K, x1 = 0.1417	–	1681.8
298.15 K, x1 = 0.1438	1002.72	–
298.15 K, x1 = 0.1444	–	1682.3
298.15 K, x1 = 0.1473	–	1682.8
298.15 K, x1 = 0.1535	–	1683.7
298.15 K, x1 = 0.1536	–	1683.7
298.15 K, x1 = 0.1588	–	1684.3
298.15 K, x1 = 0.1603	–	1684.5
298.15 K, x1 = 0.1616	–	1684.6
298.15 K, x1 = 0.1649	–	1684.9
298.15 K, x1 = 0.1676	–	1685.1
298.15 K, x1 = 0.1771	–	1685.7
298.15 K, x1 = 0.1845	1002.56	–
298.15 K, x1 = 0.1944	–	1686.1
298.15 K, x1 = 0.2114	–	1686
298.15 K, x1 = 0.2309	–	1685.4
298.15 K, x1 = 0.247	–	1684.6
298.15 K, x1 = 0.2503	1001.62	–
298.15 K, x1 = 0.2649	–	1683.5
298.15 K, x1 = 0.2807	–	1682.5
298.15 K, x1 = 0.2987	–	1681.1
298.15 K, x1 = 0.3	1000.58	–
298.15 K, x1 = 0.3178	–	1679.6
298.15 K, x1 = 0.3343	999.9	–
298.15 K, x1 = 0.3356	–	1678
298.15 K, x1 = 0.3619	–	1675.6
298.15 K, x1 = 0.38	–	1673.8
298.15 K, x1 = 0.4015	–	1671.6
298.15 K, x1 = 0.4171	998.14	–
298.15 K, x1 = 0.4247	–	1669.1
298.15 K, x1 = 0.4487	–	1666.4
298.15 K, x1 = 0.454	997.25	–
298.15 K, x1 = 0.4652	–	1664.4
298.15 K, x1 = 0.4828	–	1662.2
298.15 K, x1 = 0.4985	–	1660.2
298.15 K, x1 = 0.5003	996.2	–
298.15 K, x1 = 0.5142	–	1658.1
298.15 K, x1 = 0.5304	–	1656
298.15 K, x1 = 0.5362	995.4	–
298.15 K, x1 = 0.5465	–	1653.8
298.15 K, x1 = 0.5643	–	1651.3
298.15 K, x1 = 0.5819	–	1648.8
298.15 K, x1 = 0.5991	–	1646.4
298.15 K, x1 = 0.6177	993.8	–
298.15 K, x1 = 0.6187	–	1643.6
298.15 K, x1 = 0.6363	–	1641.1
298.15 K, x1 = 0.6478	993.2	–
298.15 K, x1 = 0.6547	–	1638.5
298.15 K, x1 = 0.6726	–	1635.9
298.15 K, x1 = 0.6904	–	1633.4
298.15 K, x1 = 0.7025	992.2	–
298.15 K, x1 = 0.7097	–	1630.7
298.15 K, x1 = 0.729	–	1628
298.15 K, x1 = 0.7504	991.4	–
298.15 K, x1 = 0.7505	–	1625.1
298.15 K, x1 = 0.7712	–	1622.3
298.15 K, x1 = 0.7919	–	1619.6
298.15 K, x1 = 0.7927	990.6	–
298.15 K, x1 = 0.8118	–	1617
298.15 K, x1 = 0.8321	–	1614.5
298.15 K, x1 = 0.8523	–	1612
298.15 K, x1 = 0.8605	989.3	–
298.15 K, x1 = 0.8751	–	1609.2
298.15 K, x1 = 0.8978	–	1606.4
298.15 K, x1 = 0.9004	988.6	–
298.15 K, x1 = 0.9201	–	1603.7
298.15 K, x1 = 0.9427	–	1600.9
298.15 K, x1 = 0.9496	987.5	–
298.15 K, x1 = 0.9712	–	1597.4
298.15 K, x1 = 0.9832	–	1595.9
298.15 K, x1 = 0.993	–	1594.7
298.15 K, x1 = 1	986.5	1593.8
303.15 K, x1 = 0.0002	–	1510.1
303.15 K, x1 = 0.0005	–	1510.9
303.15 K, x1 = 0.0007	–	1511.8
303.15 K, x1 = 0.0011	–	1513
303.15 K, x1 = 0.0014	–	1514.2
303.15 K, x1 = 0.0019	–	1515.5
303.15 K, x1 = 0.0023	–	1517.1
303.15 K, x1 = 0.0028	–	1518.5
303.15 K, x1 = 0.0033	–	1520.2
303.15 K, x1 = 0.0038	–	1521.9
303.15 K, x1 = 0.0045	–	1524.1
303.15 K, x1 = 0.0052	–	1526.2
303.15 K, x1 = 0.006	–	1528.5
303.15 K, x1 = 0.0067	–	1530.9
303.15 K, x1 = 0.0076	–	1533.3
303.15 K, x1 = 0.0084	–	1535.8
303.15 K, x1 = 0.0093	–	1538.3
303.15 K, x1 = 0.0102	–	1540.9
303.15 K, x1 = 0.0111	–	1543.4
303.15 K, x1 = 0.0121	–	1546.1
303.15 K, x1 = 0.0131	–	1549
303.15 K, x1 = 0.0143	–	1552
303.15 K, x1 = 0.0152	–	1554.6
303.15 K, x1 = 0.0164	–	1557.6
303.15 K, x1 = 0.0176	–	1560.4
303.15 K, x1 = 0.0187	–	1563.2
303.15 K, x1 = 0.0198	–	1565.8
303.15 K, x1 = 0.0211	–	1568.8
303.15 K, x1 = 0.0224	–	1571.8
303.15 K, x1 = 0.0238	–	1575
303.15 K, x1 = 0.025	–	1577.6
303.15 K, x1 = 0.0263	–	1580.4
303.15 K, x1 = 0.0274	–	1582.8
303.15 K, x1 = 0.0286	–	1585.1
303.15 K, x1 = 0.0298	–	1587.5
303.15 K, x1 = 0.0311	–	1590.1
303.15 K, x1 = 0.0323	–	1592.4
303.15 K, x1 = 0.0336	–	1594.7
303.15 K, x1 = 0.035	–	1597.4
303.15 K, x1 = 0.0363	–	1599.7
303.15 K, x1 = 0.0378	–	1602.2
303.15 K, x1 = 0.0396	–	1605.2
303.15 K, x1 = 0.0417	–	1608.5
303.15 K, x1 = 0.0431	–	1610.7
303.15 K, x1 = 0.0455	–	1614.4
303.15 K, x1 = 0.0471	–	1616.7
303.15 K, x1 = 0.0489	–	1619.2
303.15 K, x1 = 0.0504	–	1621.1
303.15 K, x1 = 0.0519	–	1623.1
303.15 K, x1 = 0.0541	–	1625.9
303.15 K, x1 = 0.0565	–	1628.8
303.15 K, x1 = 0.0594	–	1632.1
303.15 K, x1 = 0.0615	–	1634.4
303.15 K, x1 = 0.0646	–	1637.6
303.15 K, x1 = 0.0673	–	1640.2
303.15 K, x1 = 0.0706	–	1643.2
303.15 K, x1 = 0.0746	–	1646.6
303.15 K, x1 = 0.0782	–	1649.5
303.15 K, x1 = 0.0815	–	1651.8
303.15 K, x1 = 0.0842	–	1653.7
303.15 K, x1 = 0.0876	–	1655.8
303.15 K, x1 = 0.0913	–	1658
303.15 K, x1 = 0.0937	–	1659.3
303.15 K, x1 = 0.0967	–	1660.8
303.15 K, x1 = 0.0996	–	1662.2
303.15 K, x1 = 0.1022	–	1663.4
303.15 K, x1 = 0.1053	–	1664.7
303.15 K, x1 = 0.1078	–	1665.7
303.15 K, x1 = 0.1089	–	1666.1
303.15 K, x1 = 0.1114	–	1667
303.15 K, x1 = 0.1126	–	1667.4
303.15 K, x1 = 0.1153	–	1668.3
